How the values were obtained:
[1] = molecular target: T1, BTK (Homo sapiens, UniProt Q06187); experiment: BTK kinase assay (HotSpot, 33P ATP); format: biochemical; details: for IC50: 10 dose IC50, 10 μM ATP; for BTK @ 0.1 μM (% Inh): 0.1 μM compound; for BTK @ 0.1 μM (% Inh) / BTK @ 0.01 μM (% Inh) / BTK @ 1 μM (% Inh): 10 μM ATP; for BTK @ 0.01 μM (% Inh): 0.01 μM compound; for BTK @ 1 μM (% Inh): 1 μM compound
T1 construct: purchased Reaction Biology Corporation
Outline: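 In 20 mM Hepes (pH 7.5) with 10 mM MgCl2, 1 mM EGTA, 0.1 mM Na3VO4, 2 mM DTT, 0.02% Brij35, 0.02 mg/mL BSA and 1% DMSO, kinase and substrate were exposed to ten compound doses for 15–20 min.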

[2] = molecular target: T2, PI3Kα (Homo sapiens, UniProt P42336); experiment: PI3Kα isoform profiling (PI3Kδ protocol); format: biochemical; details: for PI3Kα @ 0.3 μM (% Inh): 0.3 μM compound; for IC50: 10 dose IC50
T2 construct: purchased Reaction Biology Corporation
T2 sequence (P42336 whole entry, canonical isoform): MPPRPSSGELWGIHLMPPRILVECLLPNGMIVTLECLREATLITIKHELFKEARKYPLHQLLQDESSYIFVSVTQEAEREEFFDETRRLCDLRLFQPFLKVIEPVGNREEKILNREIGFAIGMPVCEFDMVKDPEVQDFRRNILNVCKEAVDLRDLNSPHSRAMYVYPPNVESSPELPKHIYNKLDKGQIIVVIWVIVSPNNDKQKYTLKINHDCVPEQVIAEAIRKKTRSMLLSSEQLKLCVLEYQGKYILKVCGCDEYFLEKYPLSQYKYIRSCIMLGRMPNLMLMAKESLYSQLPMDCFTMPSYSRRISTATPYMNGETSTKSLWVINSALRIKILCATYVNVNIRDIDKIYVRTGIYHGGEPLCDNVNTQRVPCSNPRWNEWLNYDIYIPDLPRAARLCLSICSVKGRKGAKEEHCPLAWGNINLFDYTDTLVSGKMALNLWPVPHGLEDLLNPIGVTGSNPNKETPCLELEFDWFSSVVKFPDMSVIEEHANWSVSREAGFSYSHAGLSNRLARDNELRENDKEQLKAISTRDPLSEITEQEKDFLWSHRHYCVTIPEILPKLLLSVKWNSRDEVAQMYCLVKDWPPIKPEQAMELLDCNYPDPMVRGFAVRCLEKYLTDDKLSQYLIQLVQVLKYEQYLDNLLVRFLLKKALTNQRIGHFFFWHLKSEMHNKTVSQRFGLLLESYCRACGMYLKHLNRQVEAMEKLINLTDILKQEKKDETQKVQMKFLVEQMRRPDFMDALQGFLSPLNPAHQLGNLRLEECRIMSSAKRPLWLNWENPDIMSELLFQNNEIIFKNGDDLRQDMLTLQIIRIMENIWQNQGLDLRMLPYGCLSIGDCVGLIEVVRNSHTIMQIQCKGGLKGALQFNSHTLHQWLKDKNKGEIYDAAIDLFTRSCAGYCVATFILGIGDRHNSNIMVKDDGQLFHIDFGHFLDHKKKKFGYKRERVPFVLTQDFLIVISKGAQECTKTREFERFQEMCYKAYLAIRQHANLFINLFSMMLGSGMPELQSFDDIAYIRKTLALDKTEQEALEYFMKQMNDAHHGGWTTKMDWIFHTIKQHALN
T2 sequence (P27986 whole entry partner, canonical isoform): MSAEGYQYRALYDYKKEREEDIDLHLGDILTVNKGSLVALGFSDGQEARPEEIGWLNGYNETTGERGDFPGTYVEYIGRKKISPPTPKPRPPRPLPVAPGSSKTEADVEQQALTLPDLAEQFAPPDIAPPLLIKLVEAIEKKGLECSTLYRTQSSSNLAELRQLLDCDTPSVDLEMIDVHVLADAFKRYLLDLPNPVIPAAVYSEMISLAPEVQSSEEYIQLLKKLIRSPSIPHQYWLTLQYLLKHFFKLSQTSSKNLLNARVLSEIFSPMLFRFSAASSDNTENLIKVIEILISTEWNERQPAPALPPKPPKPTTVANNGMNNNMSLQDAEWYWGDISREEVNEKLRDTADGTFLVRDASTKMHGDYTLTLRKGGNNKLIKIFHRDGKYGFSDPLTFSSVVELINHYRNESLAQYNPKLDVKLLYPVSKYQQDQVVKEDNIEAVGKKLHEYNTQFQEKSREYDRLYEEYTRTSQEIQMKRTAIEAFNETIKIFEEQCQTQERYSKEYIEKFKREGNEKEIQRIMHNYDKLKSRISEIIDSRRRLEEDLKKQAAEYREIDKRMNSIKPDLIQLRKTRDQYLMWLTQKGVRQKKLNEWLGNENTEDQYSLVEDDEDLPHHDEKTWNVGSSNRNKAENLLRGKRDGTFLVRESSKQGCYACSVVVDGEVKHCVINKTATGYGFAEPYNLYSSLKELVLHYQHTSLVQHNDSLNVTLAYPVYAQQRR
Description: PI3Kδ assay: The PIP3 product is detected by displacement of biotin-PIP3 from an energy transfer complex consisting of Europium labeled anti-GST monoclonal antibody, a GST-tagged pleckstrin homology (PH) domain, biotinylated PIP3 and Streptavidin-Allophycocyanin (APC). Excitation of Europium in the complex results in an energy transfer to the APC and a fluorescent emission at 665 nm. The PIP3 product formed by PI 3-Kinase(h) activity displaces biotin-PIP3 from the complex resulting in a loss of energy transfer and thus a decrease in signal. This is a 3-step reaction: First, the kinase reaction with PIP2 substrate is carried out in the presence of ATP (10 μM), and the reaction is quenched with stop Solution, and then finally detect by adding Detection Mixture followed by incubation (10 min). Reaction procedure: 1) Prepare substrate in freshly prepared Reaction Buffer. 2) Deliver kinase into the substrate solution and gently mix. 3) Deliver compounds in 100% DMSO (1 μM) into the kinase reaction mixture by Acoustic technology (Echo550; nanoliter range), incubate for 10 min at RT. 4) Deliver ATP into the reaction mixture to initiate the reaction. 5) Incubate for 30 min at 30° C. 6) Quench the reaction with Stop Solution. 7) Add Detection Mixture, and incubate for overnight. 8) Measure HTRF: Ex=320 nm, ratio of Em=615 nm and Em=665 nm. The emission ratio is converted into μM PIP3 production based on PIP3 standard curves. The nonlinear regression to obtain the standard curve and IC50 values are performed using Graphpad Prism software. Assay Buffer: HEPES 50 mM (pH7.0), NaN3 0.02%, BSA 0.01%, Orthovanadate 0.1 mM, 1% DMSO. Detection buffer: HEPES 10 mM (pH7.0), BSA 0.02%, KF 0.16 M, EDTA 4 mM. Substrate: 10 μM PIP2 substrate (PI(4,5)P2).
Compounds of the invention were profiled in a 10 dose IC50 panel against PI3Kα, PI3Kβ, and PI3Kγ kinases, provided by Reaction Biology Corporation, applied to the PI3Kδ protocol provided in Example B1.

[3] = test system: CD69+B220+ cells; experiment: B cell activation assay (IgD-stimulated splenocytes, CD69+B220+ cells by FACS); format: cell-based; details: IgD 3 μg/mL, 4 h; for CD69 @ 100 nM (% Inh): 100 nM compound
Outline: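 Read-out is percent CD69+ among live B220+ cells by FACS after 4 h stimulation with 3 μg/mL IgD at 37 °C. Before stimulation, splenocytes from one female mouse (10^6 cells/mL) received 100 nM compound for 30 min.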

T1 sequence (Q06187 whole entry): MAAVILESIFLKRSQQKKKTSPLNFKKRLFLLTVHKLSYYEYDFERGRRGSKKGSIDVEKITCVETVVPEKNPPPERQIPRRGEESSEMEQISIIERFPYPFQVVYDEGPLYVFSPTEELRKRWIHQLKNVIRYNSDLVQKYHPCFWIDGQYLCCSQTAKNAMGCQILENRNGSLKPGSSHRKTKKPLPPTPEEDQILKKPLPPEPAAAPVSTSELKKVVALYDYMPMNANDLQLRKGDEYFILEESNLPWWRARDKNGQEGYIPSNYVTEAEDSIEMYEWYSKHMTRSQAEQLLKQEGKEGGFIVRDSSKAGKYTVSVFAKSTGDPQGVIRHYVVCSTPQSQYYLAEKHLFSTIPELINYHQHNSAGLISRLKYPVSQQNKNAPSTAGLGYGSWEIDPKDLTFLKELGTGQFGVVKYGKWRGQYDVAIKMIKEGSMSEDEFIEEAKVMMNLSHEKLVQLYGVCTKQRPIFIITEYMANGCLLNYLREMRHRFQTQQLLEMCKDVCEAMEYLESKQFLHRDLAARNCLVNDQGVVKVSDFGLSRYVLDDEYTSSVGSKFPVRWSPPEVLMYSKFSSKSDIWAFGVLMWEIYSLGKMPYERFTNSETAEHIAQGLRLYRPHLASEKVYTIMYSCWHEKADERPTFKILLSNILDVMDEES

For `Nc1ncnc2c1c(-c1ccc(F)c(O)c1)nn2C1CCc2ccccc2C1` (racemic) [Compound No. 26, 5-(4-amino-1-(1,2,3,4-tetrahydronaphthalen-2-yl)-1H-pyrazolo[3,4-d]pyrimidin-3-yl)-2-fluorophenol], the IC50 [1] was 10.6 nM and the “PI3Kα @ 0.3 μM (% Inh)” value [2] was 53.79 % Inh.
`Nc1ncnc2c1c(-c1ccc3cc[nH]c3c1)nn2C1CCc2ccccc2C1` (racemic) [compound 18, 3-(1H-indol-6-yl)-1-(1,2,3,4-tetrahydronaphthalen-2-yl)-1H-pyrazolo[3,4-d]pyrimidin-4-amine] was tested, and the “BTK @ 0.1 μM (% Inh)” value [1] was 38.26 % Inh, the IC50 [1] was 258 nM and the “PI3Kα @ 0.3 μM (% Inh)” value [2] was 33.14 % Inh. For the same compound, the “CD69 @ 100 nM (% Inh)” value ([3]; mouse splenocytes) was 13.22 ± 11.84 (n = 5) % Inh.
`Nc1ncnc2c1c(-c1cc(O)cc(F)c1)nn2C1CCc2ccccc2C1` (single isomer, unassigned) [6a, 3-(4-amino-1-(1,2,3,4-tetrahydronaphthalen-2-yl)-1H-pyrazolo[3,4-d]pyrimidin-3-yl)-5-fluorophenol] was tested, and the “BTK @ 0.1 μM (% Inh)” value [1] was 63.12 % Inh, the IC50 [1] was 81.1 nM and the “PI3Kα @ 0.3 μM (% Inh)” value ([2]; 0.3 µM) was 85.6 % Inh. The “CD69 @ 100 nM (% Inh)” value ([3]; mouse splenocytes, 0.1 µM) was 64.71 ± 19.01 (n = 6) % Inh and the IC50 ([3]; Mus musculus, Splenocyte) was 107 ± 26.2 nM.
For `Nc1ncnc2c1c(-c1cc(O)cc(F)c1)nn2C1CCc2ccccc2C1` (single isomer, unassigned) [6b, 3-(4-amino-1-(1,2,3,4-tetrahydronaphthalen-2-yl)-1H-pyrazolo[3,4-d]pyrimidin-3-yl)-5-fluorophenol], the “BTK @ 0.1 μM (% Inh)” value [1] was 45.78 % Inh, the IC50 [1] was 112 nM and the “PI3Kα @ 0.3 μM (% Inh)” value ([2]; 0.3 µM) was 91.35 % Inh. For the same compound, the “CD69 @ 100 nM (% Inh)” value ([3]; mouse splenocytes, 0.1 µM) was 68.73 ± 21.60 (n = 6) % Inh and the IC50 ([3]; mouse splenocytes) was 118 ± 104 nM.
`C=CC(=O)N1CC(n2nc(-c3cc(O)cc(F)c3)c3c(N)ncnc32)Cc2cc(C)ccc21` (single isomer, unassigned) [31b, 1-(3-(4-amino-3-(3-fluoro-5-hydroxyphenyl)-1H-pyrazolo[3,4-d]pyrimidin-1-yl)-6-methyl-3,4-dihydroquinolin-1(2H)-yl)prop-2-en-1-one] was tested, and the “BTK @ 0.01 μM (% Inh)” value [1] was 64.36 % Inh, the “BTK @ 0.1 μM (% Inh)” value [1] was 93.12 % Inh and the IC50 [1] was 12.1 nM. For the same compound, the IC50 [2] was 249 nM and the “CD69 @ 100 nM (% Inh)” value ([3]; mouse splenocytes, 0.1 µM) was −13.21 ± 4.55 (n = 3) % Inh.
In the case of `Nc1ncnc2c1c(-c1ccc(F)c(O)c1)nn2C1CCc2ccccc2C1` (single isomer, unassigned) [Compound No. 26a, 5-(4-amino-1-(1,2,3,4-tetrahydronaphthalen-2-yl)-1H-pyrazolo[3,4-d]pyrimidin-3-yl)-2-fluorophenol], the “BTK @ 0.1 μM (% Inh)” value [1] is reported as 84.11 % Inh, the IC50 [1] is reported as 10.4 nM and the IC50 [2] is reported as 143 nM. The “CD69 @ 100 nM (% Inh)” value ([3]; mouse splenocytes, 0.1 µM) was 16.07 ± 15.99 (n = 5) % Inh.
`Nc1ncnc2c1c(-c1ccc(F)c(O)c1)nn2C1CCc2ccccc2C1` (single isomer, unassigned) [Compound No. 26b, 5-(4-amino-1-(1,2,3,4-tetrahydronaphthalen-2-yl)-1H-pyrazolo[3,4-d]pyrimidin-3-yl)-2-fluorophenol] was tested, and the “BTK @ 0.1 μM (% Inh)” value [1] was 82.1 % Inh, the IC50 [1] was 20.9 nM and the IC50 [2] was 161 nM. For the same compound, the “CD69 @ 100 nM (% Inh)” value ([3]; mouse splenocytes, 0.1 µM) was 11.62 ± 20.93 (n = 5) % Inh.
For `Nc1ncnc2c1c(-c1ccc(F)c(O)c1)nn2C1Cc2ccccc2C1` [Compound No. 29, 5-(4-amino-1-indan-2-yl-pyrazolo[3,4-d]pyrimidin-3-yl)-2-fluoro-phenol], the “BTK @ 0.1 μM (% Inh)” value [1] was 90.90 % Inh, the IC50 [1] was 7 nM and the IC50 [2] was 73.1 nM. For the same compound, the “CD69 @ 100 nM (% Inh)” value ([3]; mouse splenocytes) was 17.76 ± 20.69 (n = 9) % Inh.
In the case of `COc1cc(-c2nn(C3Cc4ccccc4C3)c3ncnc(N)c23)ccc1C` [Compound No. 49, 1-(2,3-dihydro-1H-inden-2-yl)-3-(3-methoxy-4-methylphenyl)-1H-pyrazolo[3,4-d]pyrimidin-4-amine], the “BTK @ 0.1 μM (% Inh)” value [1] is reported as 75.02 % Inh, the “BTK @ 1 μM (% Inh)” value [1] is reported as 96.31 % Inh and the IC50 [1] is reported as 57.1 nM. The IC50 [2] was 504 nM and the “CD69 @ 100 nM (% Inh)” value ([3]; mouse splenocytes) was 16.42 ± 20.45 (n = 9) % Inh.
For `Nc1ncnc2c1c(-c1ccc(Cl)c(O)c1)nn2C1Cc2ccccc2C1` [Compound No. 56, 5-[4-amino-1-(2,3-dihydro-1H-inden-2-yl)-1H-pyrazolo[3,4-d]pyrimidin-3-yl]-2-chlorophenol], the “BTK @ 0.1 μM (% Inh)” value [1] was 90.244 % Inh, the “BTK @ 1 μM (% Inh)” value [1] was 98.64 % Inh and the IC50 [1] was 13.5 nM. For the same compound, the IC50 [2] was 186 nM and the “CD69 @ 100 nM (% Inh)” value ([3]; mouse splenocytes) was 20.57 ± 19.79 (n = 9) % Inh.
For `Nc1ncnc2c1c(-c1cc(O)cc(F)c1)cn2C1Cc2ccccc2C1` [Compound No. 63, 3-[4-amino-7-(2,3-dihydro-1H-inden-2-yl)-7H-pyrrolo[2,3-d]pyrimidin-5-yl]-5-fluorophenol], the “BTK @ 0.1 μM (% Inh)” value [1] was 92.01 % Inh, the “BTK @ 1 μM (% Inh)” value [1] was 98.56 % Inh and the IC50 [1] was 4.2 nM. For the same compound, the IC50 [2] was 74.7 nM and the “CD69 @ 100 nM (% Inh)” value ([3]; mouse splenocytes) was 21.07 ± 27.71 (n = 9) % Inh.
In the case of `COc1ccc(-c2nn(C3Cc4ccccc4C3)c3ncnc(N)c23)cc1O` [Compound No. 68, 5-[4-amino-1-(2,3-dihydro-1H-inden-2-yl)-1H-pyrazolo[3,4-d]pyrimidin-3-yl]-2-methoxyphenol], the “BTK @ 0.1 μM (% Inh)” value [1] is reported as 54.54 % Inh, the “BTK @ 1 μM (% Inh)” value [1] is reported as 89.54 % Inh and the IC50 [1] is reported as 84.3 nM. The IC50 [2] was 14 nM and the “CD69 @ 100 nM (% Inh)” value ([3]; mouse splenocytes) was 44.83 ± 29.77 (n = 6) % Inh.
In the case of `Nc1ncnc2c1c(-c1cc(O)c(F)c(F)c1)nn2C1Cc2ccccc2C1` [Compound No. 81, 5-[4-amino-1-(2,3-dihydro-1H-inden-2-yl)-1H-pyrazolo[3,4-d]pyrimidin-3-yl]-2,3-difluorophenol], the “BTK @ 0.1 μM (% Inh)” value [1] is reported as 73.83 % Inh, the “BTK @ 1 μM (% Inh)” value [1] is reported as 94.81 % Inh and the IC50 [1] is reported as 26.9 nM. The IC50 [2] was 21.1 nM, the “CD69 @ 100 nM (% Inh)” value ([3]; mouse splenocytes) was 88.08 ± 32.59 (n = 5) % Inh and the IC50 ([3]; Mus musculus, Splenocyte) was 106 ± 50.8 nM.
Compound `Nc1ncnc2c1c(-c1cc(O)cc(F)c1)nn2C1CCc2ccccc2C1` (stereo not drawn) [compound 6, 3-(4-amino-1-(1,2,3,4-tetrahydronaphthalen-2-yl)-1H-pyrazolo[3,4-d]pyrimidin-3-yl)-5-fluorophenol] has an IC50 [1] of 86.4 nM and an IC50 [2] of 20.1 nM.
`C=CC(=O)N1CC(n2nc(-c3cc(O)cc(F)c3)c3c(N)ncnc32)Cc2cc(C)ccc21` (stereo not drawn) [compound 31, 1-(3-(4-amino-3-(3-fluoro-5-hydroxyphenyl)-1H-pyrazolo[3,4-d]pyrimidin-1-yl)-6-methyl-3,4-dihydroquinolin-1(2H)-yl)prop-2-en-1-one] was tested, and the “BTK @ 0.1 μM (% Inh)” value [1] was 68.24 % Inh, the IC50 [1] was 17.4 nM and the “PI3Kα @ 0.3 μM (% Inh)” value [2] was 50.6 % Inh. For the same compound, the IC50 [2] was 539 nM.
For `N#Cc1cc(-c2cn(C3Cc4ccccc4C3)c3ncnc(N)c23)cc(O)c1F` [compound 115, 5-[4-amino-7-(2,3-dihydro-1H-inden-2-yl)-7H-pyrrolo[2,3-d]pyrimidin-5-yl]-2-fluoro-3-hydroxybenzonitrile], the “BTK @ 0.01 μM (% Inh)” value [1] was 12.09 % Inh, the “BTK @ 0.1 μM (% Inh)” value [1] was 50.43 % Inh and the IC50 [1] was 80.1 nM. The “CD69 @ 100 nM (% Inh)” value ([3]; mouse splenocytes) was 44.51 ± 5.23 (n = 3) % Inh.

— patent US20210317140A1, “Heterocyclic Compounds and Methods of Use” (MEDIVATION TECHNOLOGIES, INC, priority 2013, published 2021)
